Key:
Test in all cases: relative viability (nuclei count vs DMSO), 5 days (fraction); higher = more cells survive
[1] = compound: O=C(Nc1c[nH]nc1-c1nc2ccc(CN3CCOCC3)cc2[nH]1)NC1CC1 [AT9283] + O=C(c1cc(Cc2n[nH]c(=O)c3ccccc23)ccc1F)N1CCN(C(=O)C2CC2)CC1 [Olaparib] (partner 8 µM)
Outline: (§1)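 Each reported value is a median over duplicate plates. It expresses relative viability: treated-well nuclei count divided by vehicle-well nuclei count. Lung cancer cell lines in 1536-well plates were dosed by pin tool a day after seeding, alone with one drug or with a fixed anchor-drug dose plus five library-drug doses (not always all listed) in √10 steps, and nuclei were counted after 5 days.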

[2] = compound: C#Cc1cccc(Nc2ncnc3cc(OCCOC)c(OCCOC)cc23)c1 [Erlotinib] + COc1cccc2cc(-c3nc([C@H]4CC[C@H](C(=O)O)CC4)n4ncnc(N)c34)[nH]c12 [OSI-027] (partner 0.5 µM)
Outline: as §1

[3] = compound: O=C(Nc1c[nH]nc1-c1nc2ccc(CN3CCOCC3)cc2[nH]1)NC1CC1 [AT9283] + COc1cc2c(Oc3ccc(NC(=O)C4(C(=O)Nc5ccc(F)cc5)CC4)cc3F)ccnc2cc1OCCCN1CCOCC1 [Foretinib] (partner 0.25 µM)
Outline: as §1

[4] = compound: C#Cc1cccc(Nc2ncnc3cc(OCCOC)c(OCCOC)cc23)c1 [Erlotinib] + O=C(CCCCCCC(=O)Nc1ccccc1)NO [Vorinostat] (partner 1 µM)
Outline: as §1

[5] = compound: O=C(Nc1c[nH]nc1-c1nc2ccc(CN3CCOCC3)cc2[nH]1)NC1CC1 [AT9283] + CS(=O)(=O)N1CCN(Cc2cc3nc(-c4cccc5[nH]ncc45)nc(N4CCOCC4)c3s2)CC1 [Pictilisib] (partner 1 µM)
Outline: as §1

Cell Line: NCI-H1395
- relative viability ([1]; first compound 0.003 µM): 0.414
- relative viability ([1]; first compound 0.03 µM): 0.46
- relative viability ([1]; first compound 0.09487 µM): 0.38
- relative viability ([1]; first compound 0.3 µM): 0.358
- relative viability ([2]; first compound 0.02 µM): 0.677
- relative viability ([2]; first compound 0.2 µM): 0.712
- relative viability ([2]; first compound 0.6325 µM): 0.615
- relative viability ([2]; first compound 2 µM): 0.629
- relative viability ([3]; first compound 0.003 µM): 0.729
- relative viability ([3]; first compound 0.03 µM): 0.88
- relative viability ([3]; first compound 0.09487 µM): 0.465
- relative viability ([3]; first compound 0.3 µM): 0.397
- relative viability ([4]; first compound 0.02 µM): 0.776
- relative viability ([4]; first compound 0.2 µM): 0.674
- relative viability ([4]; first compound 0.6325 µM): 0.808
- relative viability ([4]; first compound 2 µM): 0.652
- relative viability ([5]; first compound 0.003 µM): 0.583
- relative viability ([5]; first compound 0.03 µM): 0.474
- relative viability ([5]; first compound 0.09487 µM): 0.388
- relative viability ([5]; first compound 0.3 µM): 0.399

Cell Line: NCI-H1437
- relative viability ([1]; first compound 0.003 µM): 0.616
- relative viability ([1]; first compound 0.03 µM): 0.549
- relative viability ([1]; first compound 0.09487 µM): 0.3
- relative viability ([1]; first compound 0.3 µM): 0.277
- relative viability ([2]; first compound 0.02 µM): 0.856
- relative viability ([2]; first compound 0.2 µM): 0.919
- relative viability ([2]; first compound 0.6325 µM): 0.832
- relative viability ([2]; first compound 2 µM): 0.716
- relative viability ([3]; first compound 0.003 µM): 1.33
- relative viability ([3]; first compound 0.03 µM): 0.974
- relative viability ([3]; first compound 0.09487 µM): 0.533
- relative viability ([3]; first compound 0.3 µM): 0.323
- relative viability ([4]; first compound 0.2 µM): 0.873
- relative viability ([4]; first compound 0.6325 µM): 0.818
- relative viability ([4]; first compound 2 µM): 0.667
- relative viability ([5]; first compound 0.003 µM): 0.439
- relative viability ([5]; first compound 0.03 µM): 0.468
- relative viability ([5]; first compound 0.09487 µM): 0.12
- relative viability ([5]; first compound 0.3 µM): 0.126

Cell Line: NCI-H1650
- relative viability ([1]; first compound 0.003 µM): 0.759
- relative viability ([1]; first compound 0.03 µM): 0.808
- relative viability ([1]; first compound 0.09487 µM): 0.693
- relative viability ([1]; first compound 0.3 µM): 0.48
- relative viability ([2]; first compound 0.02 µM): 0.533
- relative viability ([2]; first compound 0.2 µM): 0.515
- relative viability ([2]; first compound 0.6325 µM): 0.472
- relative viability ([2]; first compound 2 µM): 0.33
- relative viability ([3]; first compound 0.003 µM): 1.2
- relative viability ([3]; first compound 0.03 µM): 0.985
- relative viability ([3]; first compound 0.09487 µM): 0.46
- relative viability ([3]; first compound 0.3 µM): 0.327
- relative viability ([4]; first compound 0.02 µM): 0.556
- relative viability ([4]; first compound 0.2 µM): 0.559
- relative viability ([4]; first compound 0.6325 µM): 0.488
- relative viability ([4]; first compound 2 µM): 0.411
- relative viability ([5]; first compound 0.003 µM): 0.586
- relative viability ([5]; first compound 0.03 µM): 0.273
- relative viability ([5]; first compound 0.09487 µM): 0.178
- relative viability ([5]; first compound 0.3 µM): 0.218

Cell Line: NCI-H1651
- relative viability ([1]; first compound 0.003 µM): 0.176
- relative viability ([1]; first compound 0.03 µM): 0.189
- relative viability ([1]; first compound 0.09487 µM): 0.209
- relative viability ([1]; first compound 0.3 µM): 0.243
- relative viability ([2]; first compound 0.02 µM): 0.628
- relative viability ([2]; first compound 0.2 µM): 0.698
- relative viability ([2]; first compound 2 µM): 0.482
- relative viability ([3]; first compound 0.003 µM): 0.837
- relative viability ([3]; first compound 0.03 µM): 0.779
- relative viability ([3]; first compound 0.09487 µM): 0.638
- relative viability ([3]; first compound 0.3 µM): 0.396
- relative viability ([4]; first compound 0.02 µM): 0.533
- relative viability ([4]; first compound 0.2 µM): 0.541
- relative viability ([4]; first compound 0.6325 µM): 0.564
- relative viability ([4]; first compound 2 µM): 0.462
- relative viability ([5]; first compound 0.003 µM): 0.59
- relative viability ([5]; first compound 0.03 µM): 0.572
- relative viability ([5]; first compound 0.09487 µM): 0.24
- relative viability ([5]; first compound 0.3 µM): 0.255

Cell Line: NCI-H1666
- relative viability ([1]; first compound 0.003 µM): 0.739
- relative viability ([1]; first compound 0.03 µM): 0.724
- relative viability ([1]; first compound 0.09487 µM): 0.608
- relative viability ([1]; first compound 0.3 µM): 0.533
- relative viability ([2]; first compound 0.02 µM): 0.83
- relative viability ([2]; first compound 0.2 µM): 0.741
- relative viability ([2]; first compound 0.6325 µM): 0.624
- relative viability ([2]; first compound 2 µM): 0.565
- relative viability ([3]; first compound 0.003 µM): 1.01
- relative viability ([3]; first compound 0.03 µM): 0.725
- relative viability ([3]; first compound 0.09487 µM): 0.534
- relative viability ([3]; first compound 0.3 µM): 0.496
- relative viability ([4]; first compound 0.2 µM): 0.963
- relative viability ([4]; first compound 0.6325 µM): 0.775
- relative viability ([4]; first compound 2 µM): 0.78
- relative viability ([5]; first compound 0.003 µM): 0.351
- relative viability ([5]; first compound 0.03 µM): 0.326
- relative viability ([5]; first compound 0.09487 µM): 0.267
- relative viability ([5]; first compound 0.3 µM): 0.274

Cell Line: NCI-H1734
- relative viability ([1]; first compound 0.003 µM): 0.643
- relative viability ([1]; first compound 0.03 µM): 0.414
- relative viability ([1]; first compound 0.09487 µM): 0.293
- relative viability ([1]; first compound 0.3 µM): 0.259
- relative viability ([2]; first compound 0.02 µM): 0.621
- relative viability ([2]; first compound 0.2 µM): 0.586
- relative viability ([2]; first compound 0.6325 µM): 0.608
- relative viability ([2]; first compound 2 µM): 0.504
- relative viability ([3]; first compound 0.003 µM): 0.904
- relative viability ([3]; first compound 0.03 µM): 0.309
- relative viability ([3]; first compound 0.09487 µM): 0.334
- relative viability ([3]; first compound 0.3 µM): 0.246
- relative viability ([4]; first compound 0.02 µM): 0.954
- relative viability ([4]; first compound 0.6325 µM): 0.938
- relative viability ([4]; first compound 2 µM): 0.81
- relative viability ([5]; first compound 0.003 µM): 0.406
- relative viability ([5]; first compound 0.03 µM): 0.271
- relative viability ([5]; first compound 0.09487 µM): 0.299
- relative viability ([5]; first compound 0.3 µM): 0.221

Cell Line: NCI-H1755
- relative viability ([1]; first compound 0.003 µM): 0.987
- relative viability ([1]; first compound 0.03 µM): 0.859
- relative viability ([1]; first compound 0.09487 µM): 0.53
- relative viability ([1]; first compound 0.3 µM): 0.45
- relative viability ([2]; first compound 0.02 µM): 0.757
- relative viability ([2]; first compound 0.2 µM): 0.776
- relative viability ([2]; first compound 0.6325 µM): 0.786
- relative viability ([2]; first compound 2 µM): 0.619
- relative viability ([3]; first compound 0.003 µM): 0.871
- relative viability ([3]; first compound 0.03 µM): 0.755
- relative viability ([3]; first compound 0.09487 µM): 0.559
- relative viability ([3]; first compound 0.3 µM): 0.496
- relative viability ([4]; first compound 0.02 µM): 0.827
- relative viability ([4]; first compound 0.2 µM): 0.762
- relative viability ([4]; first compound 0.6325 µM): 0.772
- relative viability ([4]; first compound 2 µM): 0.716
- relative viability ([5]; first compound 0.003 µM): 0.437
- relative viability ([5]; first compound 0.03 µM): 0.395
- relative viability ([5]; first compound 0.09487 µM): 0.296
- relative viability ([5]; first compound 0.3 µM): 0.261

Cell Line: NCI-H1793
- relative viability ([1]; first compound 0.003 µM): 0.986
- relative viability ([1]; first compound 0.03 µM): 0.841
- relative viability ([1]; first compound 0.09487 µM): 0.451
- relative viability ([1]; first compound 0.3 µM): 0.257
- relative viability ([2]; first compound 0.02 µM): 0.281
- relative viability ([2]; first compound 0.2 µM): 0.225
- relative viability ([2]; first compound 0.6325 µM): 0.235
- relative viability ([2]; first compound 2 µM): 0.156
- relative viability ([3]; first compound 0.003 µM): 0.729
- relative viability ([3]; first compound 0.03 µM): 0.484
- relative viability ([3]; first compound 0.09487 µM): 0.256
- relative viability ([3]; first compound 0.3 µM): 0.219
- relative viability ([4]; first compound 0.02 µM): 0.841
- relative viability ([4]; first compound 0.2 µM): 0.36
- relative viability ([4]; first compound 0.6325 µM): 0.551
- relative viability ([4]; first compound 2 µM): 0.441
- relative viability ([5]; first compound 0.003 µM): 0.317
- relative viability ([5]; first compound 0.03 µM): 0.331
- relative viability ([5]; first compound 0.09487 µM): 0.183
- relative viability ([5]; first compound 0.3 µM): 0.196

— the supplement of paper PMC10307832
